Measurements reported in US10246453B2, “Benzenesulfonamide compounds and their use as therapeutic agents” (Xenon Pharmaceuticals Inc., priority 2016, dated 2019).
Counter-ions that a name gives are not always drawn.

Key:
NaV1.1 = NaV1.1 (Homo sapiens (Human), UniProt P35498); assay: Sodium Influx Assay (Flux), NaV1.1; assay type: cell-based; conditions: Trex HEK293 cells, ANG2 dye; arithmetic mean
NaV1.6 = NaV1.6 (Homo sapiens (Human), UniProt Q9UQD0); assay: Sodium Influx Assay (Flux), NaV1.6; conditions: read-out: Flux NaV1.6 IC50; Trex HEK293 cells, ANG2 dye; arithmetic mean
NaV1.5 = NaV1.5 (Homo sapiens (Human), UniProt Q14524); assay: Sodium Influx Assay (Flux), NaV1.5; conditions: read-out: Flux NaV1.5 IC50; Trex HEK293 cells, ANG2 dye; arithmetic mean
Sequence of NaV1.5 (Q14524 other isoform, or with tags, fused parts or gaps): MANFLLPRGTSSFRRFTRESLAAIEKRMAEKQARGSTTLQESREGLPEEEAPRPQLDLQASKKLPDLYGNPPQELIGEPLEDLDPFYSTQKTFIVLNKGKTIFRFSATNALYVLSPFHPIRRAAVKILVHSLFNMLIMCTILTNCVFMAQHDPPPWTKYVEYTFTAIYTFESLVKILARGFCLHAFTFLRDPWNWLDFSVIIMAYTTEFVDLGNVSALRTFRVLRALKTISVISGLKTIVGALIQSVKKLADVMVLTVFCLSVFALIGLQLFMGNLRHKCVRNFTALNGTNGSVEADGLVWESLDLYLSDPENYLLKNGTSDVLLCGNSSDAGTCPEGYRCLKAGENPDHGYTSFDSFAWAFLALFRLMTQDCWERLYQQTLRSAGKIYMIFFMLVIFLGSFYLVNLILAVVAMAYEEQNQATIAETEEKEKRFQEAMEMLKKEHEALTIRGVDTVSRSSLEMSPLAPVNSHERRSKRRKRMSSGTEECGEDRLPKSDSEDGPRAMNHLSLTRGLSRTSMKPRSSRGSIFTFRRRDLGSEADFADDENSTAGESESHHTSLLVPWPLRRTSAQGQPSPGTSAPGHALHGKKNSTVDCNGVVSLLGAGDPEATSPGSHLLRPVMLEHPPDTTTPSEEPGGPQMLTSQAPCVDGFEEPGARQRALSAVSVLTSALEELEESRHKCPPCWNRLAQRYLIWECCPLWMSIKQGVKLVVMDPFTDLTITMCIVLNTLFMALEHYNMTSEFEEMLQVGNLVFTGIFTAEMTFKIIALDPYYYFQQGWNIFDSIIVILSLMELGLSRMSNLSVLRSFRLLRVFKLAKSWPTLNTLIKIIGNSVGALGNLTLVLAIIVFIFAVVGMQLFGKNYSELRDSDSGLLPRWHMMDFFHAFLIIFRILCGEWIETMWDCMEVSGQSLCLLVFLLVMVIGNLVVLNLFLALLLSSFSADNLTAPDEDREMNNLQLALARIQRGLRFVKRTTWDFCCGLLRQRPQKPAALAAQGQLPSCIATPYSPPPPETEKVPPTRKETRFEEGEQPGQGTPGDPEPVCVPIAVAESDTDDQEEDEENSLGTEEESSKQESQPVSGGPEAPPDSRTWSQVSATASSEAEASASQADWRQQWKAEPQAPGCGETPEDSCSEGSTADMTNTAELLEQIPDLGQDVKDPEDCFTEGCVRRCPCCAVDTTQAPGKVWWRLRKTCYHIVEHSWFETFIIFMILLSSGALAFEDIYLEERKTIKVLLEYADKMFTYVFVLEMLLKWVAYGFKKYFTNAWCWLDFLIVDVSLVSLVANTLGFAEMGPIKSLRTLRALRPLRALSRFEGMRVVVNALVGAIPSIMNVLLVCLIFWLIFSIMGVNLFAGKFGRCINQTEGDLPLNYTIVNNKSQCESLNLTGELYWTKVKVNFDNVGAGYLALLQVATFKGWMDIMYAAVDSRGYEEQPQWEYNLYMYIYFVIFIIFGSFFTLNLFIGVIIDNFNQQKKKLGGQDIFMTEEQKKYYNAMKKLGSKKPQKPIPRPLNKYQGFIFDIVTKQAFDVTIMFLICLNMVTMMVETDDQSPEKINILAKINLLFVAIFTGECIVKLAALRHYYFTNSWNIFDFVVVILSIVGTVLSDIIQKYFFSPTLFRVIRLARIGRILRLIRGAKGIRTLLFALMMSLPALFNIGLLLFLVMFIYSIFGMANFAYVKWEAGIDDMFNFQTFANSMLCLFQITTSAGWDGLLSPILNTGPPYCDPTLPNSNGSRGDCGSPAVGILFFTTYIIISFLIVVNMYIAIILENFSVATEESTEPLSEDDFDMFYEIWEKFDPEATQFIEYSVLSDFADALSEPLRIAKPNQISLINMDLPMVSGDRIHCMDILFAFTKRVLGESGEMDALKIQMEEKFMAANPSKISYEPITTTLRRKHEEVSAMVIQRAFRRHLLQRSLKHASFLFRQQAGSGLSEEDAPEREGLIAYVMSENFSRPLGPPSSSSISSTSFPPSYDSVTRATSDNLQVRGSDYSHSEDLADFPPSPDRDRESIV

Structure (SMILES)	IC50 (NaV1.1)	IC50 (NaV1.6)	IC50 (NaV1.5)
Cc1cc(S(=O)(=O)Nc2cscn2)c(F)cc1N(C)[C@H]1CCN(CC2CCCCC2)C1 [Example 123, (S)-4-((1-(cyclohexylmethyl)-pyrrolidin-3-yl)(methyl)amino)-2-fluoro-5-methyl-N-(thiazol-4-yl)benzenesulfonamide]	7.48 µM	4 µM	> 30 µM
Cc1cc(S(=O)(=O)Nc2cscn2)c(F)cc1N(C)[C@H]1CCN(CC(C)(C)C)C1 [Example 124, (S)-2-fluoro-5-methyl-4-(methyl(1-neopentylpyrrolidin-3-yl)amino)-N-(thiazol-4-yl)benzenesulfonamide formate]	> 30 µM	9.92 µM	> 30 µM
Cc1cc(S(=O)(=O)Nc2cscn2)c(F)cc1N(C)[C@H]1CCN(CCC(C)(C)C)C1 [Example 125, (S)-4-((1-(3,3-dimethylbutyl)-pyrrolidin-3-yl)(methyl)amino)-2-fluoro-5-methyl-N-(thiazol-4-yl)benzenesulfonamide formate]	14.7 µM	2.32 µM	> 30 µM
Cc1cc(S(=O)(=O)Nc2cscn2)c(F)cc1N(C)[C@H]1CCN(Cc2ccc(O)cc2)C1 [Example 126, (S)-2-fluoro-4-((1-(4-hydroxybenzyl)-pyrrolidin-3-yl)(methyl)amino)-5-methyl-N-(thiazol-4-yl)benzenesulfonamide]	> 30 µM	4.52 µM	> 30 µM
Cc1cc(S(=O)(=O)Nc2cscn2)c(F)cc1N(C)[C@H]1CCN(Cc2cccc(C)c2F)C1 [Example 127, (S)-2-fluoro-4-((1-(2-fluoro-3-methylbenzyl)pyrrolidin-3-yl)(methyl)amino)-5-methyl-N-(thiazol-4-yl)benzenesulfonamide 2,2,2-trifluoroacetate]	10.7 µM	0.52 µM	10.1 µM
Cc1cc(S(=O)(=O)Nc2cscn2)c(F)cc1N(C)[C@H]1CCN([C@H]2CCc3ccccc32)C1 [Example 128, 4-(((S)-1-((S)-2,3-dihydro-1H-inden-1-yl)pyrrolidin-3-yl)(methyl)amino)-2-fluoro-5-methyl-N-(thiazol-4-yl)benzenesulfonamide]	> 30 µM	0.185 µM	22.5 µM
Cc1csc(CN2CC[C@H](N(C)c3cc(F)c(S(=O)(=O)Nc4cscn4)cc3C)C2)n1 [Example 129, (S)-2-fluoro-5-methyl-4-(methyl(1-((4-methylthiazol-2-yl)methyl)pyrrolidin-3-yl)amino)-N-(thiazol-4-yl)benzenesulfonamide]	> 30 µM	0.828 µM	> 30 µM
Cc1ccc(F)c(CN2CC[C@H](N(C)c3cc(F)c(S(=O)(=O)Nc4cscn4)cc3C)C2)n1 [Example 130, (S)-2-fluoro-4-((1-((3-fluoro-6-methylpyridin-2-yl)methyl)pyrrolidin-3-yl)(methyl)amino)-5-methyl-N-(thiazol-4-yl)benzenesulfonamide]	> 30 µM	0.285 µM	24.2 µM
Cc1nc(CN2CC[C@H](N(C)c3cc(F)c(S(=O)(=O)Nc4cscn4)cc3C)C2)co1 [Example 131, (S)-2-fluoro-5-methyl-4-(methyl(1-((2-methyloxazol-4-yl)methyl)pyrrolidin-3-yl)amino)-N-(thiazol-4-yl)benzenesulfonamide]	> 30 µM	2.86 µM	> 30 µM
Cc1ccc(CN2CC[C@H](N(C)c3cc(F)c(S(=O)(=O)Nc4cscn4)cc3C)C2)o1 [Example 132, (S)-2-fluoro-5-methyl-4-(methyl(1-((5-methylfuran-2-yl)methyl)pyrrolidin-3-yl)amino)-N-(thiazol-4-yl)benzenesulfonamide]	20.9 µM	0.146 µM	> 30 µM
Cc1cc(S(=O)(=O)Nc2cscn2)c(F)cc1N(C)[C@H]1CCN(Cc2coc(C(C)C)n2)C1 [Example 133, (S)-2-fluoro-4-((1-((2-isopropyloxazol-4-yl)methyl)pyrrolidin-3-yl)(methyl)amino)-5-methyl-N-(thiazol-4-yl)benzenesulfonamide]	10.9 µM	0.245 µM	> 30 µM
Cc1cc(S(=O)(=O)Nc2cscn2)c(F)cc1N(C)[C@H]1CCN(Cc2nc(C3CC3)cs2)C1 [Example 134, (S)-4-((1-((4-cyclopropylthiazol-2-yl)methyl)pyrrolidin-3-yl)(methyl)amino)-2-fluoro-5-methyl-N-(thiazol-4-yl)benzenesulfonamide]	12.1 µM	0.412 µM	> 30 µM
Cc1cc(S(=O)(=O)Nc2cscn2)c(F)cc1N(C)[C@H]1CCN(Cc2csc(-c3ccccc3)n2)C1 [Example 135, (S)-2-fluoro-5-methyl-4-(methyl(1-((2-phenylthiazol-4-yl)methyl)pyrrolidin-3-yl)amino)-N-(thiazol-4-yl)benzenesulfonamide]	0.564 µM	0.64 µM	1.67 µM
Cc1cc(S(=O)(=O)Nc2cscn2)c(F)cc1N(C)[C@H]1CCN(Cc2nccs2)C1 [Example 136, (S)-2-fluoro-5-methyl-4-(methyl(1-(thiazol-2-ylmethyl)pyrrolidin-3-yl)amino)-N-(thiazol-4-yl)benzenesulfonamide]	> 30 µM	6.79 µM	> 30 µM
Cc1cc(S(=O)(=O)Nc2cscn2)c(F)cc1N(C)[C@H]1CCN(Cc2csc(C(F)(F)F)n2)C1 [Example 137, (S)-2-fluoro-5-methyl-4-(methyl(1-((2-(trifluoromethyl)thiazol-4-yl)methyl)pyrrolidin-3-yl)amino)-N-(thiazol-4-yl)benzenesulfonamide]	5.07 µM	0.217 µM	16.5 µM
Cc1cc(S(=O)(=O)Nc2cscn2)c(F)cc1N(C)[C@H]1CCN(Cc2csc(C3CC3)n2)C1 [Example 138, (S)-4-((1-((2-cyclopropylthiazol-4-yl)methyl)pyrrolidin-3-yl)(methyl)amino)-2-fluoro-5-methyl-N-(thiazol-4-yl)benzenesulfonamide]	9.48 µM	0.05 µM	10.4 µM
Cc1coc(CN2CC[C@H](N(C)c3cc(F)c(S(=O)(=O)Nc4cscn4)cc3C)C2)n1 [Example 139, (S)-2-fluoro-5-methyl-4-(methyl(1-((4-methyloxazol-2-yl)methyl)pyrrolidin-3-yl)amino)-N-(thiazol-4-yl)benzenesulfonamide]	> 30 µM	7.73 µM	> 30 µM
Cc1cc(S(=O)(=O)Nc2cscn2)c(F)cc1N(C)[C@H]1CCN(Cc2cscn2)C1 [Example 140, (S)-2-fluoro-5-methyl-4-(methyl(1-(thiazol-4-ylmethyl)pyrrolidin-3-yl)amino)-N-(thiazol-4-yl)benzenesulfonamide]	> 30 µM	2.08 µM	> 30 µM
Cc1cc(S(=O)(=O)Nc2cscn2)c(F)cc1N(C)[C@H]1CCN(Cc2cc(C)n(C)n2)C1 [Example 141, (S)-4-((1-((1,5-dimethyl-1H-pyrazol-3-yl)methyl)pyrrolidin-3-yl)(methyl)amino)-2-fluoro-5-methyl-N-(thiazol-4-yl)benzenesulfonamide]	> 30 µM	0.582 µM	> 30 µM
Cc1cc(S(=O)(=O)Nc2cscn2)c(F)cc1N(C)[C@H]1CCN(Cc2ccc(C(F)(F)F)o2)C1 [Example 142, (S)-2-fluoro-5-methyl-4-(methyl(1-((5-(trifluoromethyl)furan-2-yl)methyl)pyrrolidin-3-yl)amino)-N-(thiazol-4-yl)benzenesulfonamide]	3.7 µM	0.531 µM	6.76 µM
Cc1cc(S(=O)(=O)Nc2cscn2)c(F)cc1N(C)[C@H]1CCN(Cc2cocn2)C1 [Example 143, (S)-2-fluoro-5-methyl-4-(methyl(1-(oxazol-4-ylmethyl)pyrrolidin-3-yl)amino)-N-(thiazol-4-yl)benzenesulfonamide]	> 30 µM	10.2 µM	> 30 µM
Cc1cc(S(=O)(=O)Nc2cscn2)c(F)cc1N(C)[C@H]1CCN(Cc2nc3ccccc3s2)C1 [Example 144, (S)-4-((1-(benzo[d]thiazol-2-ylmethyl)pyrrolidin-3-yl)(methyl)amino)-2-fluoro-5-methyl-N-(thiazol-4-yl)benzenesulfonamide]	6.72 µM	4.8 µM	8.47 µM
Cc1cc(S(=O)(=O)Nc2cscn2)c(F)cc1N(C)[C@H]1CCN(Cc2nc(C(C)C)cs2)C1 [Example 145, (S)-2-fluoro-4-((1-((4-isopropylthiazol-2-yl)methyl)pyrrolidin-3-yl)(methyl)amino)-5-methyl-N-(thiazol-4-yl)benzenesulfonamide]	9.63 µM	0.515 µM	17.1 µM
Cc1cc(S(=O)(=O)Nc2cscn2)c(F)cc1N(C)[C@H]1CCN(Cc2ncc(Cl)s2)C1 [Example 146, (S)-4-((1-((5-chlorothiazol-2-yl)methyl)pyrrolidin-3-yl)(methyl)amino)-2-fluoro-5-methyl-N-(thiazol-4-yl)benzenesulfonamide]	9.32 µM	4.4 µM	12.1 µM
Cc1cc(S(=O)(=O)Nc2cscn2)c(F)cc1N(C)[C@H]1CCN(Cc2ccn(C(F)F)n2)C1 [Example 147, (S)-4-((1-((1-(difluoromethyl)-1H-pyrazol-3-yl)methyl)pyrrolidin-3-yl)(methyl)amino)-2-fluoro-5-methyl-N-(thiazol-4-yl)benzenesulfonamide]	> 30 µM	0.482 µM	> 30 µM
Cc1ccccc1CN1CC[C@H](N(C)c2cc(F)c(S(=O)(=O)Nc3cscn3)cc2C)C1 [Example 148, (S)-2-fluoro-5-methyl-4-(methyl(1-(2-methylbenzyl)pyrrolidin-3-yl)amino)-N-(thiazol-4-yl)benzenesulfonamide]	7.58 µM	0.129 µM	12.4 µM
